In PubChem BioAssay (NCI):
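Following 48 hours of exposure in 96-well plates, responses at five concentrations were used to interpolate endpoints linearly. TGI: total growth inhibition.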

Legend:
Assay in all cases: NCI anticancer screen, dose series, 48 h
786-0 renal = test system: 786-0 renal
A498 renal = test system: A498 renal
A549 NSCLC = test system: A549 NSCLC
ACHN renal = test system: ACHN renal
BT-549 breast = test system: BT-549 breast
CAKI-1 renal = test system: CAKI-1 renal
COLO 205 colon = test system: COLO 205 colon
DU-145 prostate = test system: DU-145 prostate
HCC-2998 colon = test system: HCC-2998 colon
HCT-116 colon = test system: HCT-116 colon
HCT-15 colon = test system: HCT-15 colon
HOP-62 NSCLC = test system: HOP-62 NSCLC
HOP-92 NSCLC = test system: HOP-92 NSCLC
HS 578T breast = test system: HS 578T breast
HT29 colon = test system: HT29 colon
IGROV1 ovarian = test system: IGROV1 ovarian
K-562 leukemia = test system: K-562 leukemia
KM12 colon = test system: KM12 colon
LOX IMVI melanoma = test system: LOX IMVI melanoma
M14 melanoma = test system: M14 melanoma
MALME-3M melanoma = test system: MALME-3M melanoma
MDA-MB-231 breast = test system: MDA-MB-231 breast
MDA-MB-435 = test system: MDA-MB-435
MDA-N = test system: MDA-N
MOLT-4 leukemia = test system: MOLT-4 leukemia
NCI-H226 lung = test system: NCI-H226 lung
NCI-H23 lung = test system: NCI-H23 lung
NCI-H460 lung = test system: NCI-H460 lung
NCI-H522 lung = test system: NCI-H522 lung
NCI/ADR-RES ovarian = test system: NCI/ADR-RES ovarian
OVCAR-3 ovarian = test system: OVCAR-3 ovarian
OVCAR-4 ovarian = test system: OVCAR-4 ovarian
OVCAR-5 ovarian = test system: OVCAR-5 ovarian
OVCAR-8 ovarian = test system: OVCAR-8 ovarian
PC-3 prostate = test system: PC-3 prostate
RPMI-8226 leukemia = test system: RPMI-8226 leukemia
RXF 393 renal = test system: RXF 393 renal
SF-268 CNS = test system: SF-268 CNS
SF-295 CNS = test system: SF-295 CNS
SK-MEL-2 melanoma = test system: SK-MEL-2 melanoma
SK-MEL-28 melanoma = test system: SK-MEL-28 melanoma
SK-MEL-5 melanoma = test system: SK-MEL-5 melanoma
SK-OV-3 ovarian = test system: SK-OV-3 ovarian
SN12C renal = test system: SN12C renal
SNB-19 CNS = test system: SNB-19 CNS
SNB-75 CNS = test system: SNB-75 CNS
SR leukemia = test system: SR leukemia
SW-620 colon = test system: SW-620 colon
T-47D breast = test system: T-47D breast
TK-10 renal = test system: TK-10 renal
U251 CNS = test system: U251 CNS
UACC-257 melanoma = test system: UACC-257 melanoma
UACC-62 melanoma = test system: UACC-62 melanoma
UO-31 renal = test system: UO-31 renal
CCRF-CEM leukemia = test system: CCRF-CEM leukemia
EKVX NSCLC = test system: EKVX NSCLC
HL-60(TB) leukemia = test system: HL-60(TB) leukemia
MCF7 breast = test system: MCF7 breast
SF-539 CNS = test system: SF-539 CNS

CCOC(=O)c1sc2nc(SC)nc(N3CCCCC3)c2c1N
TGI (786-0 renal): > 100 µM | TGI (A498 renal): > 100 µM | TGI (A549 NSCLC): > 100 µM | TGI (ACHN renal): > 100 µM | TGI (BT-549 breast): > 100 µM | TGI (CAKI-1 renal): > 100 µM | TGI (COLO 205 colon): > 100 µM | TGI (DU-145 prostate): > 100 µM | TGI (HCC-2998 colon): > 100 µM | TGI (HCT-116 colon): > 100 µM | TGI (HCT-15 colon): > 100 µM | TGI (HOP-62 NSCLC): > 100 µM | TGI (HOP-92 NSCLC): > 100 µM | TGI (HS 578T breast): > 100 µM | TGI (HT29 colon): > 100 µM | TGI (IGROV1 ovarian): > 100 µM | TGI (K-562 leukemia): > 100 µM | TGI (KM12 colon): > 100 µM | TGI (LOX IMVI melanoma): > 100 µM | TGI (M14 melanoma): > 100 µM | TGI (MALME-3M melanoma): > 100 µM | TGI (MDA-MB-231 breast): > 100 µM | TGI (MDA-MB-435): > 100 µM | TGI (MDA-N): > 100 µM | TGI (MOLT-4 leukemia): > 100 µM | TGI (NCI-H226 lung): > 100 µM | TGI (NCI-H23 lung): > 100 µM | TGI (NCI-H460 lung): > 100 µM | TGI (NCI-H522 lung): > 100 µM | TGI (NCI/ADR-RES ovarian): > 100 µM | TGI (OVCAR-3 ovarian): > 100 µM | TGI (OVCAR-4 ovarian): > 100 µM | TGI (OVCAR-5 ovarian): > 100 µM | TGI (OVCAR-8 ovarian): > 100 µM | TGI (PC-3 prostate): > 100 µM | TGI (RPMI-8226 leukemia): > 100 µM | TGI (RXF 393 renal): > 100 µM | TGI (SF-268 CNS): > 100 µM | TGI (SF-295 CNS): > 100 µM | TGI (SK-MEL-2 melanoma): > 100 µM | TGI (SK-MEL-28 melanoma): > 100 µM | TGI (SK-MEL-5 melanoma): > 100 µM | TGI (SK-OV-3 ovarian): > 100 µM | TGI (SN12C renal): > 100 µM | TGI (SNB-19 CNS): > 100 µM | TGI (SNB-75 CNS): > 100 µM | TGI (SR leukemia): > 100 µM | TGI (SW-620 colon): > 100 µM | TGI (T-47D breast): > 100 µM | TGI (TK-10 renal): > 100 µM | TGI (U251 CNS): > 100 µM | TGI (UACC-257 melanoma): > 100 µM | TGI (UACC-62 melanoma): > 100 µM | TGI (UO-31 renal): > 100 µM

O=C1Cc2c([nH]c3ccc([N+](=O)[O-])cc23)-c2ccccc2N1
TGI (786-0 renal): > 100 µM | TGI (A498 renal): > 19.7 µM | TGI (A549 NSCLC): > 56.8 µM | TGI (ACHN renal): > 18.2 µM | TGI (BT-549 breast): > 100 µM | TGI (CAKI-1 renal): > 95.7 µM | TGI (CCRF-CEM leukemia): 0.325 µM | TGI (COLO 205 colon): 1.16 µM | TGI (EKVX NSCLC): 2.38 µM | TGI (HCC-2998 colon): > 49.1 µM | TGI (HCT-116 colon): 1.96 µM | TGI (HCT-15 colon): > 100 µM | TGI (HL-60(TB) leukemia): 0.752 µM | TGI (HOP-62 NSCLC): 18.8 µM | TGI (HOP-92 NSCLC): > 100 µM | TGI (HS 578T breast): > 21.2 µM | TGI (HT29 colon): 4.46 µM | TGI (IGROV1 ovarian): > 100 µM | TGI (K-562 leukemia): 9.23 µM | TGI (KM12 colon): > 55.1 µM | TGI (LOX IMVI melanoma): > 100 µM | TGI (M14 melanoma): > 30 µM | TGI (MALME-3M melanoma): > 100 µM | TGI (MCF7 breast): > 100 µM | TGI (MDA-MB-231 breast): > 100 µM | TGI (MDA-MB-435): > 100 µM | TGI (MDA-N): 8.44 µM | TGI (MOLT-4 leukemia): 1.44 µM | TGI (NCI-H226 lung): 18.2 µM | TGI (NCI-H23 lung): 6.37 µM | TGI (NCI-H460 lung): > 63 µM | TGI (NCI-H522 lung): > 26.2 µM | TGI (NCI/ADR-RES ovarian): > 84 µM | TGI (OVCAR-4 ovarian): 6.11 µM | TGI (OVCAR-5 ovarian): 0.77 µM | TGI (OVCAR-8 ovarian): > 100 µM | TGI (PC-3 prostate): > 100 µM | TGI (RPMI-8226 leukemia): 2.98 µM | TGI (RXF 393 renal): 14.6 µM | TGI (SF-268 CNS): > 94.6 µM | TGI (SF-295 CNS): > 100 µM | TGI (SF-539 CNS): 16.8 µM | TGI (SK-MEL-2 melanoma): 5.62 µM | TGI (SK-MEL-5 melanoma): 2.02 µM | TGI (SK-OV-3 ovarian): > 100 µM | TGI (SN12C renal): 19.1 µM | TGI (SNB-19 CNS): > 32.7 µM | TGI (SW-620 colon): > 58.5 µM | TGI (T-47D breast): > 100 µM | TGI (TK-10 renal): > 37.9 µM | TGI (U251 CNS): > 83.1 µM | TGI (UACC-257 melanoma): > 62.8 µM

COP1(=O)OCc2cnccc2O1 (centres undefined)
TGI (786-0 renal): > 100 µM | TGI (A549 NSCLC): > 100 µM | TGI (ACHN renal): > 100 µM | TGI (BT-549 breast): > 100 µM | TGI (CAKI-1 renal): > 100 µM | TGI (COLO 205 colon): > 100 µM | TGI (EKVX NSCLC): > 100 µM | TGI (HCC-2998 colon): > 100 µM | TGI (HCT-116 colon): > 100 µM | TGI (HCT-15 colon): > 100 µM | TGI (HOP-62 NSCLC): > 100 µM | TGI (HS 578T breast): > 100 µM | TGI (HT29 colon): > 100 µM | TGI (IGROV1 ovarian): > 100 µM | TGI (K-562 leukemia): > 100 µM | TGI (KM12 colon): > 100 µM | TGI (LOX IMVI melanoma): > 100 µM | TGI (M14 melanoma): > 100 µM | TGI (MALME-3M melanoma): > 100 µM | TGI (MCF7 breast): > 100 µM | TGI (MDA-MB-231 breast): > 100 µM | TGI (MDA-MB-435): > 100 µM | TGI (MDA-N): > 100 µM | TGI (MOLT-4 leukemia): > 100 µM | TGI (NCI-H226 lung): > 100 µM | TGI (NCI-H23 lung): > 100 µM | TGI (NCI-H460 lung): > 100 µM | TGI (NCI-H522 lung): > 100 µM | TGI (NCI/ADR-RES ovarian): > 100 µM | TGI (OVCAR-3 ovarian): > 100 µM | TGI (OVCAR-4 ovarian): > 100 µM | TGI (OVCAR-5 ovarian): > 100 µM | TGI (OVCAR-8 ovarian): > 100 µM | TGI (PC-3 prostate): > 100 µM | TGI (RPMI-8226 leukemia): > 100 µM | TGI (SF-268 CNS): > 100 µM | TGI (SF-295 CNS): > 100 µM | TGI (SF-539 CNS): > 100 µM | TGI (SK-MEL-2 melanoma): > 100 µM | TGI (SK-MEL-28 melanoma): > 100 µM | TGI (SK-MEL-5 melanoma): > 100 µM | TGI (SK-OV-3 ovarian): > 100 µM | TGI (SN12C renal): > 100 µM | TGI (SNB-19 CNS): > 100 µM | TGI (SNB-75 CNS): > 100 µM | TGI (SR leukemia): > 100 µM | TGI (SW-620 colon): > 100 µM | TGI (T-47D breast): > 100 µM | TGI (TK-10 renal): > 100 µM | TGI (U251 CNS): > 100 µM | TGI (UACC-257 melanoma): > 100 µM | TGI (UACC-62 melanoma): > 100 µM | TGI (UO-31 renal): > 100 µM
